Test results from US20120035444A1, “INTRAVITAL SAMPLE DEVICE FOR IN VIVO DRUG SCREENING” (NATIONAL TAIWAN UNIVERSITY, priority 2008, published 2012).

Tested on: liver
Settings: feeding for 10 days (FIG. 8)
Excerpt: Two-photon microscopy was used to observe living organism. […] The multiphoton microscope is illustrated in FIG. 5. […] The SHG signal was collected in the backscattering geometry.
When the liver was damaged, the function of hepatocytes would also be damaged. In the present invention, CCl4 was applied to simulate the reaction of hepatocyte when the liver was toxic.

## ClC(Cl)(Cl)Cl [CCl4]
  liver state after feeding CCl4: fibrosis
